Values belong to the compound of their own block, whether it stands above or below them.
Tests used:
Assay in all cases: radiometric filter-binding kinase assay, Kinase HotSpot
Conditions in all cases: compound 0.5 µM; ATP 10 µM
TBK1 (human) = TBK1 (human) (UniProt Q9UHD2)
EPHB1 (human) = EPHB1 (human) (UniProt P54762)
CDK5 CDK5R1 p25 (human) = CDK5 CDK5R1 p25 (human) (UniProt Q00535+Q15078)
PIM1 (human) = PIM1 (human) (UniProt P11309)
MAP3K14 (human) = MAP3K14 (human) (UniProt Q99558)
SLK (human) = SLK (human) (UniProt Q9H2G2)
AURKB (human) = AURKB (human) (UniProt Q96GD4)
MAP4K4 (human) = MAP4K4 (human) (UniProt O95819)
PRKCA (human) = PRKCA (human) (UniProt P17252)
MAP3K7 TAB1 (human) = MAP3K7 TAB1 (human) (UniProt O43318+Q15750)
MAP3K2 (human) = MAP3K2 (human) (UniProt Q9Y2U5)
CLK1 (human) = CLK1 (human) (UniProt P49759)
HIPK2 (human) = HIPK2 (human) (UniProt Q9H2X6)
PTK6 (human) = PTK6 (human) (UniProt Q13882)
PRKCB2 (human) = PRKCB2 (human) (UniProt P05771)
CSNK1G2 (human) = CSNK1G2 (human) (UniProt P78368)
SRPK3 (human) = SRPK3 (human) (UniProt Q9UPE1)
ACVR1 (human) = ACVR1 (human) (UniProt Q04771)
MINK1 (human) = MINK1 (human) (UniProt Q8N4C8)
JAK3 JH1 JH2 (human) = JAK3 JH1 JH2 (human) (UniProt P52333)
PRKCH (human) = PRKCH (human) (UniProt P24723)
TTK (human) = TTK (human) (UniProt P33981)
MAP4K5 (human) = MAP4K5 (human) (UniProt Q9Y4K4)
MAP3K3 (human) = MAP3K3 (human) (UniProt Q99759)
DYRK4 (human) = DYRK4 (human) (UniProt Q9NR20)
IKBKE (human) = IKBKE (human) (UniProt Q14164)
TYRO3 (human) = TYRO3 (human) (UniProt Q06418)
PLK3 (human) = PLK3 (human) (UniProt Q9H4B4)
TEC (human) = TEC (human) (UniProt P42680)
ACVRL1 (human) = ACVRL1 (human) (UniProt P37023)
PRKX (human) = PRKX (human) (UniProt P51817)
[1] = system: SGK1 (human), O00141 [S422D]
STK16 (human) = STK16 (human) (UniProt O75716)
MAPK10 (human) = MAPK10 (human) (UniProt P53779)
EPHB3 (human) = EPHB3 (human) (UniProt P54753)
SRPK1 (human) = SRPK1 (human) (UniProt Q96SB4)
CAMK1 (human) = CAMK1 (human) (UniProt Q14012)
EPHA5 (human) = EPHA5 (human) (UniProt P54756)
CDK4 CCND1 (human) = CDK4 CCND1 (human) (UniProt P24385+P11802)
WNK3 (human) = WNK3 (human) (UniProt Q9BYP7)
MARK3 (human) = MARK3 (human) (UniProt P27448)
MAP2K2 (human) = MAP2K2 (human) (UniProt P36507)
MAP2K2 (human), sequence (P36507 whole entry, looked up): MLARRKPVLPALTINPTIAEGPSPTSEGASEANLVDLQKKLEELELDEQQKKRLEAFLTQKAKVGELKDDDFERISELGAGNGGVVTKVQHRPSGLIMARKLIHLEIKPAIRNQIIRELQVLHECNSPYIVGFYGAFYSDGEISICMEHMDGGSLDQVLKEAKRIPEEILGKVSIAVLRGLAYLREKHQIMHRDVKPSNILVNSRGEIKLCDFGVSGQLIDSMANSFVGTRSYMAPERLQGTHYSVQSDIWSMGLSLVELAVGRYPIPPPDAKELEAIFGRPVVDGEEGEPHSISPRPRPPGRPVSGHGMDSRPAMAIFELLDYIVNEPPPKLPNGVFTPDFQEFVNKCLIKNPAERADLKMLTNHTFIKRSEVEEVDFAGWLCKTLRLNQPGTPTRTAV

PRKX (human), sequence (P51817 whole entry, looked up): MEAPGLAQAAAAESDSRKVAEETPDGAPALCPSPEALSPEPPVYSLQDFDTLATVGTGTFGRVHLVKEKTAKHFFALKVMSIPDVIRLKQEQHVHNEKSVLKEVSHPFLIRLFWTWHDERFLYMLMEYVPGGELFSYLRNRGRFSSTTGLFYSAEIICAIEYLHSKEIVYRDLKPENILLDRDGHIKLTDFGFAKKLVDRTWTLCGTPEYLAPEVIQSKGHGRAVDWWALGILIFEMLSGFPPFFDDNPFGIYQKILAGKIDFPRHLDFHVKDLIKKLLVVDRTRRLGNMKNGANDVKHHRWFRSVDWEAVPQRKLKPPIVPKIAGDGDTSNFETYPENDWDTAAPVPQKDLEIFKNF
PRKCB2 (human), sequence (P05771 whole entry, looked up): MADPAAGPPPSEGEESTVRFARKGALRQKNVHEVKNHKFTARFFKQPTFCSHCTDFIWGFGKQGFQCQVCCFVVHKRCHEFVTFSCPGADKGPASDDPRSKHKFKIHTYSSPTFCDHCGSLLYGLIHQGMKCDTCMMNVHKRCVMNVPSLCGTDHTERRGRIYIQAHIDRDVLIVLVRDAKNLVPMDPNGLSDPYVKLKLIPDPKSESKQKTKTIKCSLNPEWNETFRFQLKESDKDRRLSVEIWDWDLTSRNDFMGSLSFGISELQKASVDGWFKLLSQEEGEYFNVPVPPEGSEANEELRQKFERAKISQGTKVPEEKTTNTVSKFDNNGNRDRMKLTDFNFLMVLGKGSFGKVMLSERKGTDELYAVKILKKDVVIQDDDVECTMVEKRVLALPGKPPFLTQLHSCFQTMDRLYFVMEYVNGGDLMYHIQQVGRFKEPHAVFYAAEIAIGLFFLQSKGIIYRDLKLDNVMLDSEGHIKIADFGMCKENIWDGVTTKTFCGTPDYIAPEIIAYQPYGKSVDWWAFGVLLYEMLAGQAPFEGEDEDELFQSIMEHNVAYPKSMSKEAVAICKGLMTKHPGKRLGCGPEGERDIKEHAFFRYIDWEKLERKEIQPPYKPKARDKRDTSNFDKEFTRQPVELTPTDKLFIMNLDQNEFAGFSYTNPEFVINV
CAMK1 (human), sequence (Q14012 whole entry, looked up): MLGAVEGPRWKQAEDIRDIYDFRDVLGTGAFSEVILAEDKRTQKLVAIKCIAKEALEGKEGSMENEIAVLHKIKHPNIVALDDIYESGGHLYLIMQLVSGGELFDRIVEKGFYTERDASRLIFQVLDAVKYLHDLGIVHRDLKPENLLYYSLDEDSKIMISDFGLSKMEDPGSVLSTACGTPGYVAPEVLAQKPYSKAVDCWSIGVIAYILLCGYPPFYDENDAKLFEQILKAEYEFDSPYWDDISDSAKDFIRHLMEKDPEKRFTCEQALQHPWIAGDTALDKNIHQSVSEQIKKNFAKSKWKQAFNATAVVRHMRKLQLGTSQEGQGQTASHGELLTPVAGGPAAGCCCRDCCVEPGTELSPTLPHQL
STK16 (human), sequence (O75716 whole entry, looked up): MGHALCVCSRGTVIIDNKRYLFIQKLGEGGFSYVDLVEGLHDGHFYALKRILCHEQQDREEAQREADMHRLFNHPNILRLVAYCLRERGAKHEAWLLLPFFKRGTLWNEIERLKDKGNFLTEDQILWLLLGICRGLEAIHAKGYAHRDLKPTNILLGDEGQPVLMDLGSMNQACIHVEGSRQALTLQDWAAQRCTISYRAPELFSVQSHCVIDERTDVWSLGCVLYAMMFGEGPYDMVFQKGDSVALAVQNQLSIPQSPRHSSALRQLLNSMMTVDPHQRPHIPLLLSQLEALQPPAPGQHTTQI
PTK6 (human), sequence (Q13882 whole entry, looked up): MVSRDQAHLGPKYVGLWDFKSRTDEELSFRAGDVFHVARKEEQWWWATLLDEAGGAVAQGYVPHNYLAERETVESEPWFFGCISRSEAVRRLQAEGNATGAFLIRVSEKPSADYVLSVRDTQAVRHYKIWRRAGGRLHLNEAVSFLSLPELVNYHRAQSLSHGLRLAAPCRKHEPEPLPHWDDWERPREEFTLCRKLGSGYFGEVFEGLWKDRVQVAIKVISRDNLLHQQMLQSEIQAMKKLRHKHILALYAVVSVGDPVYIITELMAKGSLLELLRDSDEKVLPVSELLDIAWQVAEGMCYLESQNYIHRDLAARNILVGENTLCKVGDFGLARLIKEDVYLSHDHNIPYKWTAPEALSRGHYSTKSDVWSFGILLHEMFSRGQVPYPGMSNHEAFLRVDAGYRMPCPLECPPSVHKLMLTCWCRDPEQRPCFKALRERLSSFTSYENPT
MAP3K14 (human), sequence (Q99558 whole entry, looked up): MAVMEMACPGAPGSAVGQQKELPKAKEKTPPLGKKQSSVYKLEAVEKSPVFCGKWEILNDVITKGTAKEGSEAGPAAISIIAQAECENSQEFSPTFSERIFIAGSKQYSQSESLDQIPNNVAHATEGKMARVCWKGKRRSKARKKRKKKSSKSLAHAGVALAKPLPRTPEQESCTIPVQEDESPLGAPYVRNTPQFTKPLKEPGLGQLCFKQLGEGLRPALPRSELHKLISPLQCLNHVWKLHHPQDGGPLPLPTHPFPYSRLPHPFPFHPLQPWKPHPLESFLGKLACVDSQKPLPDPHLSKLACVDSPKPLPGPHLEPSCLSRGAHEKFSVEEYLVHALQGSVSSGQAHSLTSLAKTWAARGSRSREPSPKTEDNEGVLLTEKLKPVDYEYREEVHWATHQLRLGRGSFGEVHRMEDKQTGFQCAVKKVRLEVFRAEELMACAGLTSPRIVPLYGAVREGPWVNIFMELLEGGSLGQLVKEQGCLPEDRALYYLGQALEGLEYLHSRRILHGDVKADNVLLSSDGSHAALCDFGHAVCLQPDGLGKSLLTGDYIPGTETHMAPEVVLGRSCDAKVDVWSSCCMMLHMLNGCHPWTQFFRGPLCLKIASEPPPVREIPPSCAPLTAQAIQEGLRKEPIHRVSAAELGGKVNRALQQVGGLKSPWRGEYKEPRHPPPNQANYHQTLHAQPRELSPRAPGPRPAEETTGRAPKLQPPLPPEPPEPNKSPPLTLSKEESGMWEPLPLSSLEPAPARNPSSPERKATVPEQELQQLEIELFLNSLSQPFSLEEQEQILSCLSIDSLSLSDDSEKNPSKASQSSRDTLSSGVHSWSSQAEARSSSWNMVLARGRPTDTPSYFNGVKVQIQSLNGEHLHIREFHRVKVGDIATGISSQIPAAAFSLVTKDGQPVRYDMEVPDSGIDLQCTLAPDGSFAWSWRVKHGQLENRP
MAPK10 (human), sequence (P53779 whole entry, looked up): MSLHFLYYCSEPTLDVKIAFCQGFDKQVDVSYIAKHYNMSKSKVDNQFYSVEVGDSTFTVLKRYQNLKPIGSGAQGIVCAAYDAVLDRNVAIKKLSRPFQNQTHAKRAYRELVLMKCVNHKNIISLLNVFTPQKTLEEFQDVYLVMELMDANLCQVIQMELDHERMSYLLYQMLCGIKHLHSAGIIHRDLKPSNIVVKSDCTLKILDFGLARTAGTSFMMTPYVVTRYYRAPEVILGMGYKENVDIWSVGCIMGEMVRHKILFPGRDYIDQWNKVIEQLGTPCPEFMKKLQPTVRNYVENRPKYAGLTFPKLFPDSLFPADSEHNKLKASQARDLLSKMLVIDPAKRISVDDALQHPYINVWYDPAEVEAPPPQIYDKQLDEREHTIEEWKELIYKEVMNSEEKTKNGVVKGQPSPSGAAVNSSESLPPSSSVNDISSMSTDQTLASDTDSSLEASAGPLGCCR
AURKB (human), sequence (Q96GD4 whole entry, looked up): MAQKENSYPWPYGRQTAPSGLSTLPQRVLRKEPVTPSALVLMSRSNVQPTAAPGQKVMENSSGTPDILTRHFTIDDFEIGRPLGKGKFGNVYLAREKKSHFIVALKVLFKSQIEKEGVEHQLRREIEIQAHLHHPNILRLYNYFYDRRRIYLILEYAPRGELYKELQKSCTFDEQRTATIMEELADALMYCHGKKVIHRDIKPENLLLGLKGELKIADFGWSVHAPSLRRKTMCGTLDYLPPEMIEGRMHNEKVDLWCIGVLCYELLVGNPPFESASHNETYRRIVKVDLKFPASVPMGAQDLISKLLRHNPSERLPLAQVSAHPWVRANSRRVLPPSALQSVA
TEC (human), sequence (P42680 whole entry, looked up): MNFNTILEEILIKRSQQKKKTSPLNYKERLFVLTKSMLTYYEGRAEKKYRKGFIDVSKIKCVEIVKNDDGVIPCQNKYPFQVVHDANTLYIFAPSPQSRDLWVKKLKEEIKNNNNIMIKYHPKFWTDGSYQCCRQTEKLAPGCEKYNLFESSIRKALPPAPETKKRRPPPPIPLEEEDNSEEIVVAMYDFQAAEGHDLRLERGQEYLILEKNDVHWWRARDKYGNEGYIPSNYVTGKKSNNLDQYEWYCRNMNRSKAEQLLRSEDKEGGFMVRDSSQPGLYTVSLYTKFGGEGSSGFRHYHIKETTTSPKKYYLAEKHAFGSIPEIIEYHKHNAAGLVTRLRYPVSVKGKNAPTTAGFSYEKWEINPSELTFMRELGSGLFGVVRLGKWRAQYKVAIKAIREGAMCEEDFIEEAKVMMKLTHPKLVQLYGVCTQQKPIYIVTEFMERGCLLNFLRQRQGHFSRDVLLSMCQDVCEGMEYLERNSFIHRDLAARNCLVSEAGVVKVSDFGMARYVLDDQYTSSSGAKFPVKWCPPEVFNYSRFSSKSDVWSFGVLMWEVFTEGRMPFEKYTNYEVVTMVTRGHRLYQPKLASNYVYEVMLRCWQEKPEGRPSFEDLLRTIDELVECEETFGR

Structure (SMILES): CN[C@@H]1C[C@H]2O[C@@](C)([C@@H]1OC)n1c3ccccc3c3c4c(c5c6ccccc6n2c5c31)C(=O)NC4
residual activity (TBK1 (human)): -0.455%
residual activity (EPHB1 (human)): 12%
residual activity (CDK5 CDK5R1 p25 (human)): 2.78%
residual activity (PIM1 (human)): 1.47%

Structure (SMILES): COc1cc2c(Nc3ccc(Br)cc3F)ncnc2cc1OCC1CCN(C)CC1
residual activity (TBK1 (human)): 99.9%
residual activity (MAP3K14 (human)): 155%
residual activity (SLK (human)): 73.9%
residual activity (EPHB1 (human)): 27.8%
residual activity (AURKB (human)): 95.5%
residual activity (MAP4K4 (human)): 79.8%
residual activity (PRKCA (human)): 97.1%
residual activity (MAP3K7 TAB1 (human)): 93.9%
residual activity (MAP3K2 (human)): 108%
residual activity (CLK1 (human)): 105%
residual activity (HIPK2 (human)): 99.4%
residual activity (PTK6 (human)): 7.28%
residual activity (PRKCB2 (human)): 91.6%
residual activity (CSNK1G2 (human)): 98.5%
residual activity (SRPK3 (human)): 102%
residual activity (ACVR1 (human)): 208%
residual activity (MINK1 (human)): 81.5%
residual activity (JAK3 JH1 JH2 (human)): 96%
residual activity (PRKCH (human)): 117%
residual activity (TTK (human)): 95.1%
residual activity (MAP4K5 (human)): 37.1%
residual activity (MAP3K3 (human)): 102%
residual activity (DYRK4 (human)): 102%
residual activity (IKBKE (human)): 85.8%
residual activity (TYRO3 (human)): 33%
residual activity (CDK5 CDK5R1 p25 (human)): 97.8%
residual activity (PIM1 (human)): 95%
residual activity (PLK3 (human)): 95%
residual activity (TEC (human)): 91.6%
residual activity (ACVRL1 (human)): 104%
residual activity (PRKX (human)): 105%
residual activity [1]: 115%
residual activity (STK16 (human)): 101%
residual activity (MAPK10 (human)): 96.9%
residual activity (EPHB3 (human)): 77.4%
residual activity (SRPK1 (human)): 97.9%
residual activity (CAMK1 (human)): 81.6%
residual activity (EPHA5 (human)): 54.4%
residual activity (CDK4 CCND1 (human)): 94.8%
residual activity (WNK3 (human)): 98%
residual activity (MARK3 (human)): 106%

residual activity (MAP2K2 (human)): 76.2%
residual activity (TBK1 (human)): 100%
residual activity (MAP3K14 (human)): 109%
residual activity (SLK (human)): 87.7%
residual activity (EPHB1 (human)): 90.9%
residual activity (AURKB (human)): 94%
residual activity (MAP4K4 (human)): 87.1%
residual activity (PRKCA (human)): 94.3%
residual activity (MAP3K7 TAB1 (human)): 91.5%
residual activity (MAP3K2 (human)): 98.1%
residual activity (CLK1 (human)): 75.4%
residual activity (HIPK2 (human)): 95.8%
residual activity (PTK6 (human)): 46.5%
residual activity (CSNK1G2 (human)): 87%
residual activity (SRPK3 (human)): 89.5%
residual activity (ACVR1 (human)): 100%
residual activity (MINK1 (human)): 93.3%
residual activity (JAK3 JH1 JH2 (human)): 106%
residual activity (PRKCH (human)): 98.7%
residual activity (TTK (human)): 80.9%
residual activity (MAP4K5 (human)): 87.5%
residual activity (MAP3K3 (human)): 94.7%
residual activity (DYRK4 (human)): 65%
residual activity (IKBKE (human)): 90.3%
residual activity (TYRO3 (human)): 98.3%
residual activity (CDK5 CDK5R1 p25 (human)): 90%
residual activity (PIM1 (human)): 11.6%
residual activity (PLK3 (human)): 94.7%
residual activity (TEC (human)): 104%
residual activity (ACVRL1 (human)): 102%
residual activity (PRKX (human)): 96.4%
residual activity [1]: 100%
residual activity (STK16 (human)): 79.2%
residual activity (EPHB3 (human)): 91%
residual activity (SRPK1 (human)): 97%
residual activity (CAMK1 (human)): 101%
residual activity (EPHA5 (human)): 113%
residual activity (CDK4 CCND1 (human)): 90.4%
residual activity (WNK3 (human)): 81.3%
residual activity (MARK3 (human)): 94.9%
Structure (SMILES): N#C/C(=C1/Nc2ccccc2S1)c1ccnc(NCCc2cccnc2)n1

Structure (SMILES): N#Cc1c(NC(=O)c2cccc3ccccc23)sc2c1CCCC2
residual activity (MAP2K2 (human)): 106%
residual activity (TBK1 (human)): 94%
residual activity (MAP3K14 (human)): 111%
residual activity (SLK (human)): 99.2%
residual activity (EPHB1 (human)): 95.9%
residual activity (AURKB (human)): 103%
residual activity (MAP4K4 (human)): 88.9%
residual activity (PRKCA (human)): 99.5%
residual activity (MAP3K7 TAB1 (human)): 99.7%
residual activity (MAP3K2 (human)): 84%
residual activity (CLK1 (human)): 99.2%
residual activity (PTK6 (human)): 89.8%
residual activity (PRKCB2 (human)): 104%
residual activity (CSNK1G2 (human)): 103%
residual activity (SRPK3 (human)): 95.7%
residual activity (ACVR1 (human)): 72.9%
residual activity (MINK1 (human)): 95.2%
residual activity (JAK3 JH1 JH2 (human)): 101%
residual activity (PRKCH (human)): 97.9%
residual activity (TTK (human)): 85.5%
residual activity (MAP4K5 (human)): 93.8%
residual activity (MAP3K3 (human)): 99.8%
residual activity (DYRK4 (human)): 98.1%
residual activity (IKBKE (human)): 94.3%
residual activity (TYRO3 (human)): 101%
residual activity (CDK5 CDK5R1 p25 (human)): 100%
residual activity (PIM1 (human)): 105%
residual activity (PLK3 (human)): 99.6%
residual activity (TEC (human)): 111%
residual activity (ACVRL1 (human)): 107%
residual activity (PRKX (human)): 103%
residual activity [1]: 108%
residual activity (STK16 (human)): 98.5%
residual activity (MAPK10 (human)): 112%
residual activity (EPHB3 (human)): 95.9%
residual activity (SRPK1 (human)): 102%
residual activity (CAMK1 (human)): 108%
residual activity (EPHA5 (human)): 99.6%
residual activity (CDK4 CCND1 (human)): 98.7%
residual activity (WNK3 (human)): 99.2%
residual activity (MARK3 (human)): 97.1%

Structure (SMILES): O=S(=O)(NCCNC/C=C/c1ccc(Br)cc1)c1cccc2cnccc12
residual activity (MAP2K2 (human)): 103%
residual activity (TBK1 (human)): 101%
residual activity (MAP3K14 (human)): 83.6%
residual activity (SLK (human)): 93%
residual activity (EPHB1 (human)): 106%
residual activity (AURKB (human)): 97.8%
residual activity (MAP4K4 (human)): 43.8%
residual activity (PRKCA (human)): 85.7%
residual activity (MAP3K7 TAB1 (human)): 109%
residual activity (MAP3K2 (human)): 91.5%
residual activity (CLK1 (human)): 103%
residual activity (HIPK2 (human)): 99.2%
residual activity (PTK6 (human)): 94.2%
residual activity (PRKCB2 (human)): 90.2%
residual activity (CSNK1G2 (human)): 86.8%
residual activity (SRPK3 (human)): 98%
residual activity (ACVR1 (human)): 96.4%
residual activity (MINK1 (human)): 91.1%
residual activity (JAK3 JH1 JH2 (human)): 122%
residual activity (PRKCH (human)): 53.2%
residual activity (TTK (human)): 99.7%
residual activity (MAP4K5 (human)): 30.9%
residual activity (MAP3K3 (human)): 85.4%
residual activity (DYRK4 (human)): 96.4%
residual activity (IKBKE (human)): 92.3%
residual activity (TYRO3 (human)): 93.9%
residual activity (CDK5 CDK5R1 p25 (human)): 113%
residual activity (PIM1 (human)): 90.1%
residual activity (PLK3 (human)): 98.2%
residual activity (TEC (human)): 102%
residual activity (ACVRL1 (human)): 119%
residual activity (PRKX (human)): -2.49%
residual activity [1]: 93.2%
residual activity (STK16 (human)): 94.4%
residual activity (MAPK10 (human)): 92.6%
residual activity (EPHB3 (human)): 92.5%
residual activity (CAMK1 (human)): 107%
residual activity (EPHA5 (human)): 96.9%
residual activity (CDK4 CCND1 (human)): 93.9%
residual activity (WNK3 (human)): 93.1%
residual activity (MARK3 (human)): 96.2%

From the kinase profiling compilation of Christmann-Franck et al. (2016)
